Data published in US5077195A, “Polypeptides complementary to peptides or proteins having an amino acid sequence or nucleotide coding sequence at least partially known and methods of design therefor” (Board of Reagents, The University of Texas System, priority 1986, dated 1991).
Several values for one entry are separate records, joined by “and”; a condition that tells them apart may be missing. Equal values may be shown once. Where no end group is shown, it is not given here.

Key:
HTCA = experiment: ELISA binding of immunoglobulins to HTCA-coated plates; details: Plates coated with HTCA
Method: (§1) Two peptides complementary to ACTH, described in Examples 1B and 1C as HTCA and 3'-5' HTCA, were each coupled to Keyhole Limpet Hemocyanin (KLH) with glutaraldeyde (1 mg peptide, 1 mg KLH, 30 mM glutaraldehyde for 30 minutes at room temperature followed by dialysis) to prepare antigens for rabbit immunization. Two rabbits were injected separately with 250 ug of peptide-KLH antigens weekly for four weeks. Each rabbit was bled biweekly for three weeks following the last injection. Antibodies representing the total immunoglobulin from serum of each rabbit was purified by precipitation from serum with 50% saturated ammonium sulfate at 4° C. followed by standard ion exchange chromatography on a DEAE column.
To examine the binding of each of the immunoglobulins to each of the peptides, enzyme-linked immunosorbant assays were performed. In these assays, one of the complementary peptides was coated onto polycarbonate plates in a carbonate coating buffer at pH 9.0 overnight. Unbound peptide was removed by washing three times with phosphate buffered saline (PBS)-TWEEN 20. Various amounts of immunoglobulins were added to peptide-coated wells in PBS-TWEEN 20 solution and incubated for one hour. Unbound immunoglobulin was removed by washing with PBS-TWEEN 20. To each well was added a 1:300 dilution of goat anti-rabbit IgG coupled to alkaline phosphatase enzyme. After one hour the wells were washed with PBS-TWEEN 20 to remove unbound secondary antibodies. The amount of remaining secondary antibody was determined by reacting p-nitrophenyl phosphate with the remaining aklaline phosphatase enzyme for 15 minutes, stopping the reaction with 3M NaOH, and measuring nitrophenol produced spectrophotometrically at 490 nm.

^125 I-ACTH = target: T1, ^125 I-ACTH (Homo sapiens, UniProt P01189); experiment: Solid-phase binding of ^125 I-ACTH to 5'-3' and 3'-5' complementary peptides
T1 construct: ACTH plates+immunized rabbit immunoglobulin
T1 sequence (P01189 138-176 limits assumed): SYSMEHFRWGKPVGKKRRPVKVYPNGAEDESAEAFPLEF
Method: A solid-phase binding assay was used to determine the ability of both the 5'-to-3' and the 3'-to-5'-complementary-RNA-strand peptides (see Examples 1A and 1C) to bind ^125 I-ACTH. The peptides were diluted in phosphate-buffered saline (140 mM-NaCl/3 mM-KCl/0.1% NaN3 /20 mM-phosphate buffer, pH 7.4) to 2 mg/ml, and 0.2 ml/well was placed into poly(vinyl chloride) micro-titre plates (Becton and Dickinson, Oxnard, CA, U.S.A.). After 18 h at 4° C., unbound peptide was removed by washing three times with phosphate-buffered saline containing 0.1% bovine serum albumin (Sigma Chemical Co., St. Louis, MO, U.S.A.). ^125 I-ACTH was diluted to various concentrations with phosphate-buffered saline containing 0.1% bovine serum albumin and incubated in peptide-coated wells for 60 minutes at 4° C. […] After incubation, unbound radiolabel was washed out with phosphate-buffered saline containing 0.1% bovine serum albumin, and the radioactivity of individual wells was measured by gamma-radiation counting. The amount of specifically bound radioactivity was determined by blocking ^125 I-ACTH binding with unlabelled ACTH. Additional controls included coating wells with insulin or bovine serum albumin (2 mg/ml) before the addition of the ^125 I-ACTH.

3'-5' HTCA = experiment: ELISA binding of immunoglobulins to 3'-5' HTCA-coated plates; details: Plates coated with 3'-5' HTCA; antibody 0.11 mg/ml
Method: as §1
To examine the binding of each of the immunoglobulins to each of the peptides, enzyme-linked immunosorbant assays were performed. In these assays, one of the complementary peptides was coated onto polycarbonate plates in a carbonate coating buffer at pH 9.0 overnight. Unbound peptide was removed by washing three times with phosphate buffered saline (PBS)-TWEEN 20. […] The amount of remaining secondary antibody was determined by reacting p-nitrophenyl phosphate with the remaining aklaline phosphatase enzyme for 15 minutes, stopping the reaction with 3M NaOH, and measuring nitrophenol produced spectrophotometrically at 490 nm.

I^125 ACTH (1-39) = target: T2, I^125 ACTH (1-39) (Homo sapiens, UniProt P01189); experiment: ^125 I-ACTH binding to peptide-coated microtiter wells
T2 construct: I^125 ACTH (1-39) (New England Nuclear Boston, MA); purchased New England Nuclear (Boston, MA)
T2 sequence (P01189 138-176 limits assumed): T1 sequence (P01189 138-176 limits assumed)
Method: Utilizing techniques described in Example 1B, polyvinyl microtiter wells were coated with 3'-5' HTCA from a 1 mM solution thereof or with BSA.
The BSA and 3'-5' HTCA coated wells were washed and then treated with one of three solutions of I^125 ACTH (1-39) (New England Nuclear Boston, MA) having different concentrations. After a forty five minute incubation period the solution was removed and the microtiter wells extensively washed. The microtiter wells were separated and assayed for iodine^125content in a Beckman Gamma 5500 gamma counter. Bound ^125 I-ACTH was measured in duplicate at three concentrations in the absence and presence of excess unlabelled ACTH.
Utilizing the cRNA sequence and HTCA sequence shown in Table 8 of Example 1A, a series of peptides having a carboxy-terminal portion of the HTCA amino acid were synthesized. A pentamer (5-mer) contained the amino acid sequence: H2 N-Phe-His-Gly-Val-Arg-COOH. A decamer (10-mer) contained the amino acid sequence: H2 N-[…]COOH. A twenty membered peptide (20-mer) contained the amino acids sequence: H2 N-[…] Val-Arg-COOH. Each of thes peptides was used to coat microtiter wells and the coated wells tested for the ability to bind ^125 I-ACTH as described in Example 1C.
A 24-mer HTCA variant (R-HTCA) with reversed amino acid sequence directionality (amino-terminal and carboxy-terminal ends being reversed) was synthesized and had the following sequence: H2 N-[…] Arg-His-Leu-His-Val-Gly-COOH. The well-coating and ^125 I-ACTH binding procedures were performed as described in Example 1-C and the resultant data shown in Table 11.

angiotensin II receptors = experiment: Binding of [^125 I] angiotensin II to isolated hepatic receptor; set-up: species or system Rabbit; details: concentration that inhibits binding of radiolabelled angiotensin II by 50%; 0.25 nM label; 60 minutes at 20° C.
Method: Rabbit livers were homogenized, and were centifuged in order to isolate particles sedimenting between 1,000 and 100,000 xg. Binding activity was solublized with 1% digitonin, followed by ammonium sulfate fractionation between 49 and 65% satuation followed by DEAE- cellulose chromatography at pH 7.5 using a linear gradient between 0.0 and 0.3M KCl.
The reaction is initiated by addition of the receptor and samples are incubated for 60 minutes at 20° C. The reaction is terminated with 1 ml of cold 0.5% charcoal/0.05% Dextran in 100 mM Tris-HCl, pH 7.5.
The complete system under these conditions regularly yields about 10,000 cpm of bound radioactivity.

Row | Substance | Absorbance at 490 nm (HTCA; antibody 0.04 mg/ml) | Absorbance at 490 nm (HTCA; antibody 0.11 mg/ml) | Absorbance at 490 nm (HTCA; antibody 0.3 mg/ml) | Absorbance at 490 nm (HTCA; antibody added 0.012 mg/ml) | effectiveness in binding ACTH (in words) (^125 I-ACTH) | Absorbance at 490 nm (3'-5' HTCA) | binding of ^125 I-ACTH to coated wells (in words) (I^125 ACTH (1-39)) | Bound CPM - ^125 I-ACTH (I^125 ACTH (1-39); 1:3 dilution ^125 I-ACTH) | Bound CPM - ^125 I-ACTH (I^125 ACTH (1-39); 1:3 dilution ^125 I-ACTH, + Excess ACTH) | Bound CPM - ^125 I-ACTH (I^125 ACTH (1-39); 1:9 dilution ^125 I-ACTH, + Excess ACTH) | Bound CPM - ^125 I-ACTH (I^125 ACTH (1-39); conc ^125 I-ACTH) | Bound CPM - ^125 I-ACTH (I^125 ACTH (1-39); conc ^125 I-ACTH, + Excess ACTH) | ID50 (angiotensin II receptors)
1 | RMRYLVKATPFGHPFFAAGHFHMG [3'-5' HTCA] | 0.24 ± 0.08 | 0.37 ± 0.09 | 0.91 ± 0.11 | 0.08 ± 0.04 | equally effective in binding ACTH | 0.89 ± 0.23 | binds to coated 3'-5' HTCA | 601 CPM and 590 CPM | 287 CPM and 299 CPM | 191 CPM and 183 CPM | 1819 CPM and 1716 CPM | 616 CPM and 615 CPM | –
2 | Ac-KGVYIHAL-NH2 [CCA-AII (Ac, Am), Ac--LYS--GLY--VAL--TYR--ILE--HIS--ALA--LEU--Am] | – | – | – | – | – | – | – | – | – | – | – | – | 3,100 nM
